Common to all, as to format: in vivo
The subject of one data set is Viola arvensis. As to the kind of experiment: Greenhouse trial: herbicidal efficacy, Viola arvensis. The conditions noted are these: post-emergence 2-4-leaf, 14 days after application, g of ai/ha: A1.1 100, B1.1 5, C7 100, C25 1.25, C52 2.5, C43 100, C57 5, mixtures at same rates. On the procedure: (§1) The trials were carried out under greenhouse conditions (test pots, diameter 8 cm, spray application using 300 l of water/hectare, 2 repetitions, 6 to 8 plants per pot).
(§2) At the time of application, the harmful plants were at the 2-4-leaf growth stage.

Data set [1] deals with Brassica napus (volunteer weed). The experiment in a line: Greenhouse trial: herbicidal efficacy, Brassica napus. Conditions: post-emergence 2-4-leaf, 14 days after application, g of ai/ha: A1.1 100, B1.1 5, C12 12.5, C18 50, mixtures at same rates. Here is the method: as §1
(§3) At the time of application, the harmful plants were at the 2-4-leaf growth stage. The application rates of the herbicidally active compounds used on their own or in combinations are listed in the results tables.
(§4) Scoring was by visual comparison of the treated with the untreated controls (0-100% scale, 14 days after the application. The results (means for all plants per pot and means of two repetitions per pot and treatment) are listed in Tables 4 to 8 below.
(§5) 4.2 Abbreviations used in Tables 4 to 6application rate g/ai=application rate in grams of active compound per hectare • ai=active ingredient (of an active compound content of 100%) • GA=glufosinate-ammonium • wheat tolerant • to GA=GA-tolerant wheat (GMO) • E^C=expected value according to Colby, (E^C=A+B−A×B/100)= • =for ternary combinations: (A+B)+C−(A+B)×C/100 • E^A=expected value according to the addition method (E^A=A+B) • Δ=difference (%) between observed value —%—vs. expected value (%) (observed value minus expected value) • examination: observed values for (A), (B) and (A)+(B) in % • scoring: observed value (%) greater>than E^C/E^A:->synergism (+Δ) • observed value (%) equal to =E^C/E^A->additive effect (+−0Δ) • observed value (%) smaller<than E^A/E^C->antagonism (−Δ)

The test system of a further data set is Lolium multiflorum. As to the kind of experiment: Greenhouse trial: herbicidal efficacy, Lolium multiflorum. Conditions: post-emergence 2-4-leaf, 14 days after application, g of ai/ha: A1.1 100, B1.1 5, C62 1.25, C4 60, mixtures at same rates. Here is the method:
as §1, §3, §4, §5

For another data set, the system named is Setaria viridis. The experiment in a line: Greenhouse trial: herbicidal efficacy, Setaria viridis. The conditions noted are these: post-emergence 2-4-leaf, 14 days after application. Here is the method:
as §1, §3, §4, §5

For another data set, the system named is wheat (GA-tolerant). Here is the method:
as §1, §2

In a further data set the test system is Matricaria chamomilla. The experiment in a line: Greenhouse trial: herbicidal efficacy, Matricaria chamomilla. Conditions: post-emergence 2-4-leaf, 14 days after application, g of ai/ha: A1.1 100, B1.1 5, C5 1.25, C24 12.5, C9 7.5, C32 62.5, C37 5, C58 5, C60 10, C61 25, C66 0.375, C71 0.5, C74 0.375, C42 125, mixtures at same rates. Here is the method: as §1, §3, §4, §5

The mark [2] stands for this setting: Table 4, greenhouse, post-emergence, 14 days after application, g of ai/ha: A1.1 100, B1.1 5, C5 1.25, C24 12.5, C9 7.5, C32 62.5, C37 5, C58 5, C60 10, C61 25, C66 0.375, C71 0.5, C74 0.375, C42 125, mixtures at same rates.
[3] abbreviates: Table 5, greenhouse, post-emergence, 14 days after application, g of ai/ha: A1.1 100, B1.1 5, C7 100, C25 1.25, C52 2.5, C43 100, C57 5, mixtures at same rates.
Setting [4] is: Table 6, greenhouse, post-emergence, 14 days after application, g of ai/ha: A1.1 100, B1.1 5, C12 12.5, C18 50, mixtures at same rates.
The mark [5] stands for this setting: Table 7, greenhouse, post-emergence, 14 days after application, g of ai/ha: A1.1 100, line r12 5, C28 50, C40 1, C43 100, C13 50, mixtures (100 + 5) + partner rate.
Where [6] appears, read: Table 8, greenhouse, post-emergence, 14 days after application, g of ai/ha: A1.1 100, B1.1 5, C62 1.25, C4 60, mixtures at same rates.
Where [7] appears, read: g of ai/ha: A1.1 100, line r12 5, C28 50, C40 1, C43 100, C13 50, mixtures (100 + 5) + partner rate.

Read-outs that look alike come from different tables or passages of the source.

Consider `CP(=O)(O)CCC(N)C(=O)O` (stereo not drawn) [(A1.1) GA, glufosinate-ammonium], for which, in the data set on Viola arvensis, the “Herbicidal efficacy (%) Viola arvensis” value turned out to be 50%. The “Herbicidal efficacy (%) Brassica napus” value in data set [1] was found to be 15%. Besides, the “Herbicidal efficacy (%) Lolium multiflorum” value in the data set on Lolium multiflorum was 15%. The “Herbicidal efficacy (%) Setaria viridis” value in the data set on Setaria viridis (g of ai/ha: A1.1 100, C28 50, C40 1, C43 100, C13 50, mixtures (100 + 5) + partner rate) worked out at 90%. Besides, the “Damage to crop plants (%) wheat (GA-tolerant)” value (shortened to “Damage to crop plants (%) wheat”) with wheat (GA-tolerant) (setting [2]), in the data set on wheat (GA-tolerant) (setting [3]), in the data set with wheat (GA-tolerant) (setting [4]), in the data set with wheat (GA-tolerant) (setting [5]) and with wheat (GA-tolerant) (setting [6]) was 10% each time. Moreover, in the data set with Matricaria chamomilla, the “Herbicidal efficacy (%) Matricaria chamomilla” value is 50%.

As for `COC(=O)c1nc(-c2ccc(Cl)c(OC)c2F)cc(N)c1Cl` [(B1.1), methyl 4-amino-3-chloro-6-(4-chloro-2-fluoro-3-methoxyphenyl)pyridine-2-carboxylate], the “Herbicidal efficacy (%) Viola arvensis” value in the data set with Viola arvensis amounted to 50%. Further, in data set [1], the “Herbicidal efficacy (%) Brassica napus” value stood at 60%. The “Herbicidal efficacy (%) Lolium multiflorum” value in the data set with Lolium multiflorum was determined as 0%. Moreover, the “Damage to crop plants (%) wheat” value in the data set on wheat (GA-tolerant) (in vivo) was 0%. For the same molecule, the “Herbicidal efficacy (%) Matricaria chamomilla” value in the data set on Matricaria chamomilla came out at 20%.

On to `CCOC(=O)C1=NN(c2ccc(Cl)cc2Cl)C(C)(C(=O)OCC)C1` (stereo not drawn) [(C4) mefenpyr-di-et, mefenpyr(-diethyl)], for which the “Herbicidal efficacy (%) Lolium multiflorum” value with Lolium multiflorum was 0%. In the data set with wheat (GA-tolerant) (setting [6]), the “Damage to crop plants (%) wheat” value was determined as 0%.

Regarding `COc1cc(OC)nc(NC(=O)NS(=O)(=O)N(C)S(C)(=O)=O)n1` [(C5) amidosulfuron, amidosulfuron], the “Damage to crop plants (%) wheat” value in the data set on wheat (GA-tolerant) (in vivo) is 0%. Moreover, in the data set with Matricaria chamomilla, the “Herbicidal efficacy (%) Matricaria chamomilla” value was 45%.

As to `N#Cc1cc(Br)c(O)c(Br)c1` [(C7) bromoxynil, bromoxynil], the “Herbicidal efficacy (%) Viola arvensis” value in the data set with Viola arvensis stood at 20%. Besides, in the data set on wheat (GA-tolerant) (setting [3]), the “Damage to crop plants (%) wheat” value was determined as 0%.

As to `CCOC(=O)C(Cl)Cc1cc(-n2nc(C)n(C(F)F)c2=O)c(F)cc1Cl` (stereo not drawn) [(C9) carfentrazone, carfentrazone-ethyl], in the data set on wheat (GA-tolerant) (setting [2]), the “Damage to crop plants (%) wheat” value is listed as 10%. Further, the “Herbicidal efficacy (%) Matricaria chamomilla” value in the data set on Matricaria chamomilla stood at 0%.

As for `C#CCOC(=O)[C@@H](C)Oc1ccc(Oc2ncc(Cl)cc2F)cc1` [(C12) clodinafop, clodinafop-propargyl], in data set [1], the “Herbicidal efficacy (%) Brassica napus” value turned out to be 0%. In the data set on wheat (GA-tolerant) (in vivo), the “Damage to crop plants (%) wheat” value amounted to 0%.

On to `O=C(O)COc1ccc(Cl)cc1Cl` [(C13) 2,4-D, 2,4-D], for which the “Herbicidal efficacy (%) Setaria viridis” value in the data set on Setaria viridis (setting [7]) worked out at 0%. The “Damage to crop plants (%) wheat” value in the data set with wheat (GA-tolerant) (setting [5]) stood at 0%.

For `O=C(Nc1ccc(F)cc1F)c1cccnc1Oc1cccc(C(F)(F)F)c1` [(C18) diflufenican, diflufenican], the “Herbicidal efficacy (%) Brassica napus” value in data set [1] worked out at 30%. Further, in the data set with wheat (GA-tolerant) (setting [4]), the “Damage to crop plants (%) wheat” value was 10%.

On to `CCOC(=O)[C@@H](C)Oc1ccc(Oc2nc3ccc(Cl)cc3o2)cc1` [(C24) fenoxaprop-p-et., fenoxaprop-P-ethyl], for which the “Damage to crop plants (%) wheat” value in the data set on wheat (GA-tolerant) (setting [2]) is listed as 0%. In addition, the “Herbicidal efficacy (%) Matricaria chamomilla” value in the data set on Matricaria chamomilla was found to be 0%.

As for `COc1ncc(F)c2nc(S(=O)(=O)Nc3c(F)cccc3F)nn12` [(C25) florasulam, florasulam], the “Herbicidal efficacy (%) Viola arvensis” value in the data set on Viola arvensis was found to be 20%. Besides, the “Damage to crop plants (%) wheat” value in the data set with wheat (GA-tolerant) (setting [3]) was found to be 0%.

On to `CC(C)N(C(=O)COc1nnc(C(F)(F)F)s1)c1ccc(F)cc1` [(C28) flufenacet, flufenacet (thiafluamide)], for which the “Herbicidal efficacy (%) Setaria viridis” value in the data set with Setaria viridis (setting [7]) is reported as 20%.

On to `CNC1=C(c2cccc(C(F)(F)F)c2)C(=O)C(c2ccccc2)O1` (stereo not drawn) [(C32) flurtamone, flurtamone], for which the “Damage to crop plants (%) wheat” value in the data set on wheat (GA-tolerant) (setting [2]) is reported as 15%. Besides, the “Herbicidal efficacy (%) Matricaria chamomilla” value with Matricaria chamomilla came to 25%.

Turning to `COCc1cnc(C2=NC(C)(C(C)C)C(=O)N2)c(C(=O)O)c1` (stereo not drawn) [(C37) imazamox, imazamox], in the data set on wheat (GA-tolerant) (setting [2]), the “Damage to crop plants (%) wheat” value was determined as 15%. Further, in the data set with Matricaria chamomilla, the “Herbicidal efficacy (%) Matricaria chamomilla” value is 0%.

Take `COC(=O)c1ccc(I)cc1S(=O)(=O)[N-]C(=O)Nc1nc(C)nc(OC)n1.[Na+]` [(C40) iodosulfuron-me-Na, iodosulfuron-methyl-sodium]: the “Herbicidal efficacy (%) Setaria viridis” value with Setaria viridis (setting [7]) is reported as 10%. In the data set on wheat (GA-tolerant) (setting [5]), the “Damage to crop plants (%) wheat” value came to 0%.

In the case of `CC(C)c1ccc(NC(=O)N(C)C)cc1` [(C42) isoproturon, isoproturon], the “Damage to crop plants (%) wheat” value in the data set on wheat (GA-tolerant) (in vivo) is listed as 0%. In the data set with Matricaria chamomilla, the “Herbicidal efficacy (%) Matricaria chamomilla” value is recorded as 15%.

For `Cc1cc(Cl)ccc1OCC(=O)O` [(C43) MCPA, MCPA], the “Herbicidal efficacy (%) Viola arvensis” value with Viola arvensis is 10%. Further, the “Herbicidal efficacy (%) Setaria viridis” value in the data set with Setaria viridis (setting [7]) was 0%. The “Damage to crop plants (%) wheat” value in the data set on wheat (GA-tolerant) (setting [3]) and with wheat (GA-tolerant) (setting [5]) was 0% throughout.

Regarding `COC(=O)c1ccc(CNS(C)(=O)=O)cc1S(=O)(=O)NC(=O)Nc1nc(OC)cc(OC)n1` [(C52) mesosulfuron-me, mesosulfuron-methyl], in the data set on Viola arvensis, the “Herbicidal efficacy (%) Viola arvensis” value was 0%. In addition, the “Damage to crop plants (%) wheat” value in the data set with wheat (GA-tolerant) (in vivo) amounted to 0%.

In the case of `COc1cnc(OC)n2nc(NS(=O)(=O)c3c(OCC(F)F)cccc3C(F)(F)F)nc12` [(C57) penoxulam, penoxsulam], in the data set on Viola arvensis, the “Herbicidal efficacy (%) Viola arvensis” value is on record as 5%. Also, in the data set with wheat (GA-tolerant) (in vivo), the “Damage to crop plants (%) wheat” value came out at 0%.

As to `CCc1cc(C)cc(CC)c1-c1c(OC(=O)C(C)(C)C)n2n(c1=O)CCOCC2` [(C58) pinoxaden, pinoxaden], the “Damage to crop plants (%) wheat” value in the data set with wheat (GA-tolerant) (setting [2]) stood at 0%. Further, in the data set on Matricaria chamomilla, the “Herbicidal efficacy (%) Matricaria chamomilla” value is listed as 0%.

Turning to `CCCOc1nn(C(=O)[N-]S(=O)(=O)c2ccccc2C(=O)OC)c(=O)n1C.[Na+]` [(C60) propoxycarbazone-Na, propoxycarbazone-sodium], in the data set on wheat (GA-tolerant) (setting [2]), the “Damage to crop plants (%) wheat” value stood at 10%. Further, in the data set on Matricaria chamomilla, the “Herbicidal efficacy (%) Matricaria chamomilla” value is reported as 10%.

Consider `Cc1nn(C)c(O)c1C(=O)c1ccc(C(F)(F)F)cc1S(C)(=O)=O` [(C61) pyrasulfutole, pyrasulfutole], for which, in the data set with wheat (GA-tolerant) (in vivo), the “Damage to crop plants (%) wheat” value was found to be 0%. Moreover, in the data set with Matricaria chamomilla, the “Herbicidal efficacy (%) Matricaria chamomilla” value was 50%.

On to `COc1cc(OC)n2nc(NS(=O)(=O)c3c(C(F)(F)F)ccnc3OC)nc2n1` [(C62) pyroxulam, pyroxsulam], for which the “Herbicidal efficacy (%) Lolium multiflorum” value with Lolium multiflorum came out at 40%. For the same molecule, in the data set with wheat (GA-tolerant) (in vivo), the “Damage to crop plants (%) wheat” value came out at 10%.

Consider `COC(=O)c1csc(C)c1S(=O)(=O)NC(=O)n1nc(OC)n(C)c1=O` [(C66) thiencarbazone-me, thiencarbazone-methyl], for which the “Damage to crop plants (%) wheat” value in the data set on wheat (GA-tolerant) (in vivo) is 5%. Besides, the “Herbicidal efficacy (%) Matricaria chamomilla” value with Matricaria chamomilla was found to be 10%.

For the molecule `COc1nc(C)nc(N(C)C(=O)NS(=O)(=O)c2ccccc2C(=O)O)n1` [(C71) tribenuron, tribenuron], the “Damage to crop plants (%) wheat” value with wheat (GA-tolerant) (setting [2]) is recorded as 0%. Besides, the “Herbicidal efficacy (%) Matricaria chamomilla” value with Matricaria chamomilla is recorded as 0%.

With `COc1nc(C)nc(=NC(=O)NS(=O)(=O)c2ccccc2C(=O)O)[nH]1` [(C74) metsulfuron, metsulfuron], the “Damage to crop plants (%) wheat” value with wheat (GA-tolerant) (setting [2]) worked out at 0%.

Source of the values: patent US9253985B2, “Herbicidal composition for tolerant or resistant cereal crops” (priority 2010, dated 2016).
